Laboratory results as given in patent US12139480B2, “5-thiazolecarboxamide kinase inhibitor and uses thereof” (iOmx Therapeutics AG, priority 2018, dated 2024).

Legend:
ABL1 wt = molecular target: T1, ABL1 wt (Homo sapiens, UniProt P00519); test: radiometric protein kinase assay (33PanQinase), IC50; assay type: biochemical
T1 construct: includes the ABL1 wild-type protein (amino acids P118-S525) and mutants forms; purchased ProQinase
T1 sequence (P00519 118-535 limits assumed): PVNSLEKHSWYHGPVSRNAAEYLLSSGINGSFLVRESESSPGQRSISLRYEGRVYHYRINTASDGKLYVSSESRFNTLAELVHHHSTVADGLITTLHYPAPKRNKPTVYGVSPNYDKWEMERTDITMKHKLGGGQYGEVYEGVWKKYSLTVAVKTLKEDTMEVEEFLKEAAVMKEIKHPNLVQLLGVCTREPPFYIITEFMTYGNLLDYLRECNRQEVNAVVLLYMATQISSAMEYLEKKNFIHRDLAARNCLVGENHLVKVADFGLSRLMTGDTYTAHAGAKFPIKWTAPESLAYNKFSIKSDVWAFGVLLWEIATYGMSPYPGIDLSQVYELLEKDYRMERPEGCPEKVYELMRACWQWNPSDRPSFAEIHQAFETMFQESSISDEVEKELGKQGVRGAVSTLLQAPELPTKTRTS
Protocol: (§1) Incorporation of 33Pi was determined with a microplate scintillation counter (Microbeta, Wallac).

SRC (GST-HIS-tag) = SRC (GST-HIS-tag) (Homo sapiens, UniProt P12931); test: as above; assay type: biochemical
Protocol: as §1

M579-A2-luc tumour cells = test: sensitisation of tumour cells to in-vitro TNF attack, luciferase-based killing assay; assay type: cell-based; details: TNF 10 ng/mL, compound between about 10 and 100 nM
Protocol: PANC1-luc is an HLA-A2.1+ luciferase-expressing pancreatic adenocarcinoma (PDAC) tumour cell line, and M579-A2-luc is an HLA-A2.1+ luciferase-expressing melanoma tumour cell line.
After lysis, luciferase assay buffer is added and immediately the luciferase intensity was measured by using the TECAN-Spark microplate reader.

K562 human CML tumours = details: dasatinib 8-50 mg/kg PO once a day for 10 days, 5-days-on and 2-days off; imatinib high doses; cited from earlier work
K562 CML cells = details: similar study; dasatinib 10 and 30 mg/kg/day; imatinib 200 mg/kg/day; cited from earlier work
SIK1 = molecular target: T2, SIK1 (Homo sapiens, UniProt P57059); test: radiometric protein kinase assay (33PanQinase), IC50; assay type: biochemical
T2 construct: purchased ProQinase
Protocol: as §1

SIK2 = molecular target: T3, SIK2 (Homo sapiens, UniProt Q9H0K1); test: as above; assay type: biochemical
T3 construct: purchased ProQinase
Protocol: as §1

SIK3 = molecular target: T4, SIK3 (Homo sapiens, UniProt Q9Y2K2); test: as above; assay type: biochemical
T4 construct: purchased ProQinase
Protocol: as §1

[1] = humans; prescribing information; cited from earlier work

Chain of SRC (GST-HIS-tag) (P12931 whole entry): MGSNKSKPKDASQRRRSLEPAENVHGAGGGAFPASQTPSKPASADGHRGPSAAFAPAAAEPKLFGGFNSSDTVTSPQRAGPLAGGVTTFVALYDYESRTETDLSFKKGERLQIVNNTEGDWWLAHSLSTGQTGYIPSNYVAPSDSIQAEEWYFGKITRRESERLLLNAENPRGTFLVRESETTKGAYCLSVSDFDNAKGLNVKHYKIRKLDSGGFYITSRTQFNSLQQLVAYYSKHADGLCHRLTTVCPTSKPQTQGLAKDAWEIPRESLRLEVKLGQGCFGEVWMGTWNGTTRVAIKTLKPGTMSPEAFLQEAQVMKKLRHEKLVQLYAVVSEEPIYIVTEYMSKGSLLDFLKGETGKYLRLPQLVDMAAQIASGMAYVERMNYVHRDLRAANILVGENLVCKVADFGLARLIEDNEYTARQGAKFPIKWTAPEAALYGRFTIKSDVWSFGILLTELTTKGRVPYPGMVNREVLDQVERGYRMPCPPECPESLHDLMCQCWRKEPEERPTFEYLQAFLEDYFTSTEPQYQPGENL
T3 sequence (Q9H0K1 whole entry): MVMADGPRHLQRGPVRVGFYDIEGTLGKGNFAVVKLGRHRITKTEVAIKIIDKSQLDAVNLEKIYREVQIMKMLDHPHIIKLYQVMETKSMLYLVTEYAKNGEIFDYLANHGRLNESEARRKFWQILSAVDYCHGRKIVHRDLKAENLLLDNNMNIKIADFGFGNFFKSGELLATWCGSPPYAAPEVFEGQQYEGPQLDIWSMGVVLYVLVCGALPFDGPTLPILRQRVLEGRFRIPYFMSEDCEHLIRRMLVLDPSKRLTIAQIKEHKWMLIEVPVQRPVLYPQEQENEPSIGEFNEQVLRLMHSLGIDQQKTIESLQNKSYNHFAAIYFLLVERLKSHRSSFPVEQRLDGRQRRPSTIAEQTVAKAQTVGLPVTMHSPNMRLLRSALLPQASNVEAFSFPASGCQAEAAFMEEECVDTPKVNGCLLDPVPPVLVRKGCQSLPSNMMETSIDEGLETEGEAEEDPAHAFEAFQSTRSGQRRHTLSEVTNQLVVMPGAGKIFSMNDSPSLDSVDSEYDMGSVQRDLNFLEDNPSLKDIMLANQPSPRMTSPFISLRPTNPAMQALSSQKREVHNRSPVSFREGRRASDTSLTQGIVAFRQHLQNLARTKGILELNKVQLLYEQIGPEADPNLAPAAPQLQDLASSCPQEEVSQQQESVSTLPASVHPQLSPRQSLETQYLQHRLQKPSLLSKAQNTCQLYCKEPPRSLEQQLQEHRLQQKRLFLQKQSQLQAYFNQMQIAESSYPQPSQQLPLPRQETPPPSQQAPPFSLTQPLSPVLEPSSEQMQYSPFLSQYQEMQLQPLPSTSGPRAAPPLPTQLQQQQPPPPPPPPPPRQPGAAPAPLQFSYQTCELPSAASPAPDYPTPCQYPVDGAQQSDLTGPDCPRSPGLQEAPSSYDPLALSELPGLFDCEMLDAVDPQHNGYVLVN
T2 sequence (P57059 whole entry): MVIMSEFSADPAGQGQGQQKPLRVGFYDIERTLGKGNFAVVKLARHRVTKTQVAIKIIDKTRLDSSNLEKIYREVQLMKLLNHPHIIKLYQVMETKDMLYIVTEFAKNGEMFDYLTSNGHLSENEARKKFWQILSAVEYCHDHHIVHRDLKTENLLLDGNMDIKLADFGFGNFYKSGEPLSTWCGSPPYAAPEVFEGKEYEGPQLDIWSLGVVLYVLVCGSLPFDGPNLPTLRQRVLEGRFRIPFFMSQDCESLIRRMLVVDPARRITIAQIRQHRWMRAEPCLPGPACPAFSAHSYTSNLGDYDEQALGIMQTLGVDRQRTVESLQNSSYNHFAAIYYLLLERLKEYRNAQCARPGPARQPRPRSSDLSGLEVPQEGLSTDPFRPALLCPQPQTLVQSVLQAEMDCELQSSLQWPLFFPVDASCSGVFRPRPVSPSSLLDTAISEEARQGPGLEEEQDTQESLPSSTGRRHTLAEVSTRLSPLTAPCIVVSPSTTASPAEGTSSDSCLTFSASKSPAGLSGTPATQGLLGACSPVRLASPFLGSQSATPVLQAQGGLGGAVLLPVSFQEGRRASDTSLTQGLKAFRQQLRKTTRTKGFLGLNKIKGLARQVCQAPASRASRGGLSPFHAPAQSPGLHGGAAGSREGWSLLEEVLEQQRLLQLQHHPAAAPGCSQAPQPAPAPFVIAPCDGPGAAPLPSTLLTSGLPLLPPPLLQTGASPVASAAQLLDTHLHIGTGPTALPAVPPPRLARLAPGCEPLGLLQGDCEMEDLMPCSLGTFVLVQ
T4 sequence (Q9Y2K2 whole entry): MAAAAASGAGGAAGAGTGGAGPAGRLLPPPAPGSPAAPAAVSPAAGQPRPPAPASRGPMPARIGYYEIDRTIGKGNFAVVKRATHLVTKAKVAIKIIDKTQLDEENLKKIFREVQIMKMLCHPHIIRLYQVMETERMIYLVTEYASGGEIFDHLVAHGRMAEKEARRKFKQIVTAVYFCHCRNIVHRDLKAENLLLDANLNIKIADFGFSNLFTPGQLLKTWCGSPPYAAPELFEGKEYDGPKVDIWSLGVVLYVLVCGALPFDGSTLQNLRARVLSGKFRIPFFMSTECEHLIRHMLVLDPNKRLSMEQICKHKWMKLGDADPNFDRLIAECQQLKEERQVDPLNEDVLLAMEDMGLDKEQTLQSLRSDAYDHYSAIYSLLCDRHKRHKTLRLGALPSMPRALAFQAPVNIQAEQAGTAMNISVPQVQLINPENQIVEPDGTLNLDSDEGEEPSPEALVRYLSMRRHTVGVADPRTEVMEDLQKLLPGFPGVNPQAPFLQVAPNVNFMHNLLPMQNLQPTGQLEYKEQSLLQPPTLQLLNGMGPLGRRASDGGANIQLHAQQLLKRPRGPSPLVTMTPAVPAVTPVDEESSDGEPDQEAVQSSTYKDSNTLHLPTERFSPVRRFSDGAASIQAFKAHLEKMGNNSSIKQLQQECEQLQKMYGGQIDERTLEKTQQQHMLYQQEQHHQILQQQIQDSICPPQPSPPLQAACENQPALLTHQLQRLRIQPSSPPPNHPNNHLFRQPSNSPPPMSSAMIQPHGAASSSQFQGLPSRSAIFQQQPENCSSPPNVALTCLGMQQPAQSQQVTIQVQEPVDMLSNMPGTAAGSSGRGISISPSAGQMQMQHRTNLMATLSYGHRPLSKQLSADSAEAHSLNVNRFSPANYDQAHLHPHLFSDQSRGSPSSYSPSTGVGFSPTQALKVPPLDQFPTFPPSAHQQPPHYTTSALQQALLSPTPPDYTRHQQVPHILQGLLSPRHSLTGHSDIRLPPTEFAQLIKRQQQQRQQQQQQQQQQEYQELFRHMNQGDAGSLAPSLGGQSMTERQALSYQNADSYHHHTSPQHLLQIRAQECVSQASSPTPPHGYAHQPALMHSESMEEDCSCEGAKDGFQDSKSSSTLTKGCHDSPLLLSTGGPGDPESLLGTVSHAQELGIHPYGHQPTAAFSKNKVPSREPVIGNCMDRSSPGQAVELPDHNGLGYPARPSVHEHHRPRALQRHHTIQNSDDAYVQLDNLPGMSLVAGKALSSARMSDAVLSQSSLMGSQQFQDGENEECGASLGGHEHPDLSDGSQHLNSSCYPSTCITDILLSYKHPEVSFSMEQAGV

inhibitory activity (ABL1 wt) | inhibitory activity (SRC (GST-HIS-tag)) | inhibitory activity (SIK1) | inhibitory activity (SIK2) | inhibitory activity (SIK3) | Structure (SMILES) | cytotoxicity in the presence of TNF compared to inhibitor alone (M579-A2-luc tumour cells) | tumour response (K562 human CML tumours) | survival / intracranial tumour growth (K562 CML cells) | terminal / elimination half-life [1]
 |  |  |  |  | Cc1ccc(NC(=O)c2ccc(CN3CCN(C)CC3)cc2)cc1Nc1nccc(-c2cccnc2)n1 [imatinib] |  | failed to produce a comparative response | failed to inhibit intracranial tumour growth | 
potent inhibitor | potent inhibitor | strong inhibitor | strong inhibitor | weak inhibitor | COc1c(F)cccc1NC(=O)c1cnc(Nc2cc(N3CCN(CCO)CC3)nc(C)n2)s1 [Compound B4, N-(3-fluoro-2-methoxyphenyl)-2-((6-(4-(2-hydroxyethyl)piperazin-1-yl)-2-methylpyrimidin-4-yl)amino)thiazole-5-carboxamide] | fails to exhibit cytotoxicity |  |  | 
 |  |  |  |  | Cc1cn(-c2cc(NC(=O)c3ccc(C)c(Nc4nccc(-c5cccnc5)n4)c3)cc(C(F)(F)F)c2)cn1 [nilotinib] |  |  |  | approximately 17 hours
potent ABL1 & SRC inhibitor | potent ABL1 & SRC inhibitor | low inhibitory activity | low inhibitory activity | low inhibitory activity | CCOc1cccc(Cl)c1NC(=O)c1cnc(Nc2cc(N3CCN(CCO)CC3)nc(C)n2)s1 [Compound B8, N-(2-chloro-6-ethoxyphenyl)-2-((6-(4-(2-hydroxyethyl)piperazin-1-yl)-2-methylpyrimidin-4-yl)amino)thiazole-5-carboxamide] | fails to exhibit cytotoxicity |  |  | 

Structure (SMILES) | inhibitory activity (ABL1 wt) | inhibitory activity (SRC (GST-HIS-tag)) | inhibitory activity (SIK1) | inhibitory activity (SIK2) | inhibitory activity (SIK3) | cytotoxicity in the presence of TNF compared to inhibitor alone (M579-A2-luc tumour cells) | tumour response (K562 human CML tumours) | survival / intracranial tumour growth (K562 CML cells) | terminal / elimination half-life [1]
Cc1nc(Nc2ncc(C(=O)Nc3c(Cl)cccc3Br)s2)cc(N2CCN(CCO)CC2)n1 [Compound B1, N-(2-bromo-6-chlorophenyl)-2-((6-(4-(2-hydroxyethyl)piperazin-1-yl)-2-methylpyrimidin-4-yl)amino)thiazole-5-carboxamide] | pan-SIK and ABL1 & SRC inhibitor | pan-SIK and ABL1 & SRC inhibitor |  |  |  | increased cytotoxicity |  |  | 
